Test results from the NIST ThermoML archive (doi:10.1021/je200816z).
Numbers after ± are expanded uncertainties.

Conditions: 351.21 K; Liquid

vapor or sublimation pressure: 100 ± 0.9 kPa
SMILES: CCO [ethanol]
